# System: H838
# Test: CCK-8 cell viability assay, H838
# Format: cell-based, human
# Details: H838 cells, statement in words
# Method: Cell viability was measured using Cell Counting Kit-8 (CCK-8, Enzo Life Sciences, Farmingdale, N.Y.). In this assay, WST-8 is reduced by dehydrogenases in cells to produce a yellow-colored product (formazan), which is soluble in culture medium. The amount of formazan generated is directly proportional to the number of living cells. After treatment, CCK-8 solution was added to each well and incubated for 4 h. The concentration of formazan was measured with a spectrophotometer at an absorbance wavelength of 450 nm. Cell viability was expressed as a percentage of the corresponding control.
# To determine whether the cytotoxic effects of Compound 1 correlate with the presence of Ras mutations, cell lines derived from human lung cancer (A549 and H838), liver cancer (HepG2 and Hep3B), and leukemia (K562 and THP-1) with wild-type Ras (H838, Hep3B, and K562) or mutant Ras (A549, HepG2, and THP-1) were used. Cell viability was measured after 48 h of Compound 1 treatment.
# Next, the IC50 values for Compound 1 analogs (Compounds 29, 30 and 31), a metabolite (Compound 27), and analogues isolated from filamentous A. camphorata (Compounds 25, 26, 28) were determined in H838 cells. […] (Table 1)
smiles,measurement,value
"COC1=C(OCc2ccccc2)C(O)C(C/C=C(\C)CC/C=C(\C)CCC=C(C)C)C(C)C1=O (stereo not shown) [Compound 31, 3-(benzyloxy)-4-hydroxy-2-methoxy-6-methyl-5-[(2E,6E)-3,7,11-trimethyldodeca-2,6,10-trien-1-yl]cyclohex-2-en-1-one]",cytotoxic effect compared with Compound 1,even more cytotoxic than Compound 1

# Reference: US9365481B2, “Cyclohexenone compositions and process for making thereof” (Golden Biotechnology Corporation, priority 2013, dated 2016)
